# Measured values published in patent US20070280972A1, “Adhesive solid gel-forming formulations for dermal drug delivery” (ZARS, Inc., priority 2006, published 2007).
# Like-named read-outs stand apart in the source and are kept apart here.
# Tests used:
# [1] = In vitro skin flux, Franz diffusion cell, hairless mouse skin; conditions: for steady state flux in solid gel-forming formulation compared with flux-enabling non-volatile solvent alone: Table 16 vs solvent tables; for Avg. Flux / Average Flux: mean and st. dev of three; for Skin Flux: excess drug, linear region 4-8 hours, mean ± SD of three
# [2] = Estimated therapeutically sufficient flux (steady state flux of marketed products, in vitro)
# [3] = In vitro skin flux, Franz diffusion cell, human epidermal membrane / human cadaver skin; type: in vitro ADME; conditions: for Skin Flux: 0.1% (w/w) clobetasol propionate, human cadaver skin (HEM), linear region 6-28 hours, mean ± SD of three
# [4] = as above; type: in vitro ADME; conditions: for duration over which steady-state delivery is shown: cumulative amount delivered across human cadaver skin from a solidified gel formulation (FIG. 1, FIG. 2)
# [5] = pH 7.4
# [6] = non-volatile solvent system: Ethyl oleate, hairless mouse skin
# [7] = non-volatile solvent system: Isostearic acid, 200 mcL on hairless mouse skin
# [8] = non-volatile solvent system: Oleic acid, hairless mouse skin
# [9] = non-volatile solvent system: Polyethylene glycol 400, 200 mcL on hairless mouse skin
# [10] = non-volatile solvent: Polyethylene glycol 400, hairless mouse skin
# [11] = steady state flux of marketed product through hairless mouse or human epidermal membrane, method of Example 1, estimate
# [12] = non-volatile solvent system: Glycerol, hairless mouse skin
# [13] = non-volatile solvent system: Propylene glycol, hairless mouse skin
# [14] = non-volatile solvent system: Span 20 (sorbitan laurate), hairless mouse skin
# [15] = non-volatile solvent system: Isopropyl myristate, hairless mouse skin
# [16] = solvents isopropyl myristate, ethyl oleate, propylene glycol, and Span 20, hairless mouse skin
smiles,measurement,setting,value
"Nc1nc2c(ncn2COCCO)c(=O)[nH]1 [Acyclovir, acyclovir]",steady state flux in solid gel-forming formulation compared with flux-enabling non-volatile solvent alone,[1]; hairless mouse skin,higher
same,Avg. Flux,"[1]; high flux-enabling non-volatile solvent: ISA + 30% trolamine, hairless mouse skin",7 ± 2 μg/cm2/h
same,Skin Flux,"[1]; non-volatile solvent system: Ethyl oleate + 10% trolamine, hairless mouse skin",0.2 ± 0.2 μg/cm^2/h
same,Skin Flux,[1]; [6],0.2 ± 0.2 μg/cm^2/h
same,Skin Flux,"[1]; non-volatile solvent system: Isostearic acid + 10% trolamine, hairless mouse skin",2.7 ± 0.6 μg/cm^2/h
same,Skin Flux,"[1]; non-volatile solvent system: Isostearic acid + 30% trolamine, hairless mouse skin",7 ± 2 μg/cm^2/h
same,Skin Flux,[1]; [7],0.1 ± 0.09 μg/cm^2/h
same,Skin Flux,"[1]; non-volatile solvent system: Oleic acid + 10% trolamine, hairless mouse skin",3.7 ± 0.5 μg/cm^2/h
same,Skin Flux,"[1]; non-volatile solvent system: Oleic acid + 30% trolamine, hairless mouse skin",14 ± 5 μg/cm^2/h
same,Skin Flux,[1]; [8],0.4 ± 0.3 μg/cm^2/h
same,Skin Flux,[1]; [9],0 μg/cm^2/h
same,Skin Flux,"[1]; non-volatile solvent system: Span 80 (sorbitan monooleate), hairless mouse skin",0.07 ± 0.03 μg/cm^2/h
same,Average Flux,"[1]; non-volatile solvent: Isostearic acid + 10% trolamine, hairless mouse skin",2.7 ± 0.6 μg/cm2/hr
same,Average Flux,[1]; [10],0 μg/cm2/hr
same,Estimated Therapeutically sufficient flux,[2]; [11],3 μg/cm^2/h
same,Estimated Therapeutically sufficient flux,"[2]; steady state flux of marketed product through hairless mouse or human epidermal membrane, method of Example 1, estimate, listed as acyclovir",about 3 μg/cm^2/h
"CCC(=O)O[C@]1(C(=O)CCl)[C@@H](C)C[C@H]2[C@@H]3CCC4=CC(=O)C=C[C@]4(C)[C@@]3(F)[C@@H](O)C[C@@]21C [Clobetasol propionate, clobetasol propionate]",Average Flux,"[3]; all the neat non-volatile solutions studied, over a 30 hour time period, human cadaver skin",less than 50 ng/cm^2/hr
same,Average Flux,"[3]; non-volatile solvent: Isostearic acid (ISA), human epidermal membrane, mean and st. dev of three",0.019 ± 0.003 μg/cm2/hr
same,Average Flux,"[3]; non-volatile solvent: Light mineral oil, human epidermal membrane, mean and st. dev of three",0.031 ± 0.003 μg/cm2/hr
same,Average Flux,"[3]; non-volatile solvent: Propylene glycol, human epidermal membrane, mean and st. dev of three",0.0038 ± 0.0004 μg/cm2/hr
same,average flux relative to light mineral oil,[3]; propylene glycol and isostearic acid at a weight ratio of 9:1 vs light mineral oil,20 times
same,Skin Flux,[3]; solvent: Ethyl oleate,19.4 ± 1.6 ng/cm^2/h
same,Skin Flux,[3]; solvent: Glycerol,7.0 ± 4.1 ng/cm^2/h
same,Skin Flux,[3]; solvent: Isostearic acid (ISA),19.4 ± 3.2 ng/cm^2/h
same,Skin Flux,[3]; solvent: Light mineral oil,31.2 ± 3.4 ng/cm^2/h
same,Skin Flux,[3]; solvent: Olive oil,13.6 ± 3.3 ng/cm^2/h
same,Avg. Flux,"[3]; solvent: PG + ISA (Ratio of PG:ISA ranging from 200:1 to 1:1), value is for 9:1 mixture, human epidermal membrane",0.8 ± 0.2 μg/cm2/h
same,Skin Flux,[3]; solvent: Propylene glycol/ISA (9:1),764.7 ± 193.9 ng/cm^2/h
same,Skin Flux,"[3]; solvent: Propylene glycol, 200 mcl",3.8 ± 0.4 ng/cm^2/h
C[C@H]1C[C@H]2[C@@H]3CCC4=CC(=O)C=C[C@]4(C)[C@@]3(F)[C@@H](O)C[C@]2(C)[C@@]1(O)C(=O)CCl [Clobetasol],Estimated Therapeutically sufficient flux,[2]; [11],0.05 μg/cm^2/h
O=C(O)Cc1ccccc1Nc1c(Cl)cccc1Cl [Diclofenac],duration over which steady-state delivery is shown,[4],28 h
same,steady state flux in solid gel-forming formulation compared with flux-enabling non-volatile solvent alone,"[4]; formulation (Example 16) tested on human epidermal membrane, solvent on hairless mouse skin",lower
same,Estimated Therapeutically sufficient flux,[2]; [11],1 μg/cm^2/h
"CC(C)Cn1cnc2c(N)nc3ccccc3c21 [Imiquimod, imiquimod]",steady state flux in solid gel-forming formulation compared with flux-enabling non-volatile solvent alone,[1]; hairless mouse skin,unchanged
same,Skin Flux,[1]; [12],0 μg/cm^2/h
same,Skin Flux,[1]; [7],0.30 ± 0.06 μg/cm^2/h
same,Skin Flux,[1]; [13],0.05 ± 0.02 μg/cm^2/h
same,Skin Flux,[1]; [14],0.30 ± 0.05 μg/cm^2/h
same,Skin Flux,"[1]; non-volatile solvent system: Tween 60 (polyoxyethylene sorbitan monostearate), hairless mouse skin",0.02 ± 0.01 μg/cm^2/h
"CC(C(=O)O)c1cccc(C(=O)c2ccccc2)c1 (stereo not shown) [Ketoprofen, ketoprofen]",steady state flux in solid gel-forming formulation compared with flux-enabling non-volatile solvent alone,[1]; hairless mouse skin,lower
same,Avg. Flux,"[1]; high flux-enabling non-volatile solvent: Propylene glycol, hairless mouse skin",90 ± 50 μg/cm2/h
same,Skin Flux,[1]; [12],2 ± 1 μg/cm^2/h
same,Skin Flux,[1]; [8],180 ± 20 μg/cm^2/h
same,Skin Flux,[1]; [9],5 ± 2 μg/cm^2/h
same,Skin Flux,[1]; [13],90 ± 50 μg/cm^2/h
same,Skin Flux,[1]; [14],15 ± 3 μg/cm^2/h
same,Average Flux,[1]; [10],5 ± 2 μg/cm2/hr
same,Average Flux,"[1]; non-volatile solvent: Span 20, hairless mouse skin",15 ± 3 μg/cm2/hr
same,Estimated Therapeutically sufficient flux,[2]; [11],16 μg/cm^2/h
same,Estimated Therapeutically sufficient flux,"[2]; steady state flux of marketed product through hairless mouse or human epidermal membrane, method of Example 1, estimate, listed as ketoprofen",about 16 μg/cm^2/h
"CCCN1CCCC[C@H]1C(=O)Nc1c(C)cccc1C [Ropivacaine, ropivacaine]",steady state flux in solid gel-forming formulation compared with flux-enabling non-volatile solvent alone,[1]; hairless mouse skin,higher
same,Avg. Flux,"[1]; high flux-enabling non-volatile solvent: ISA, hairless mouse skin",11 ± 2 μg/cm2/h
same,Avg. Flux,"[1]; high flux-enabling non-volatile solvent: Span 20, hairless mouse skin",26 ± 8 μg/cm2/h
same,Skin Flux,[1]; [12],1.2 ± 0.7 μg/cm^2/h
same,Skin Flux,[1]; [7],11 ± 2 μg/cm^2/h
same,Skin Flux,"[1]; non-volatile solvent system: Mineral oil, hairless mouse skin",8.9 ± 0.6 μg/cm^2/h
same,Skin Flux,[1]; [14],26 ± 8 μg/cm^2/h
same,Skin Flux,"[1]; non-volatile solvent system: Tween 20 (polyoxyethylene sorbitan monolaurate), hairless mouse skin",2.4 ± 0.1 μg/cm^2/h
same,Average Flux,"[1]; non-volatile solvent: Glycerol, hairless mouse skin",1.2 ± 0.7 μg/cm2/hr
same,Average Flux,"[1]; non-volatile solvent: Mineral oil, hairless mouse skin",8.9 ± 0.6 μg/cm2/hr
same,duration over which steady-state delivery is shown,[4],30 h
same,Estimated Therapeutically sufficient flux,[2]; Estimated flux based on known potency relative to lidocaine,5 μg/cm^2/h
same,Estimated Therapeutically sufficient flux,"[2]; Estimated flux based on known potency relative to lidocaine, listed as ropivacaine base",about 5 μg/cm^2/h
"C[C@]12CC[C@H]3[C@@H](CCC4=CC(=O)CC[C@@]43C)[C@@H]1CC[C@@H]2O [Testosterone, testosterone]",Estimated Therapeutically sufficient flux,[5],0.8 μg/cm^2/h
O=C(O)Cc1ccccc1Nc1c(Cl)cccc1Cl [diclofenac acid],Skin Flux,[1]; [6],7 ± 3 μg/cm^2/h
same,Skin Flux,[1]; [12],0 μg/cm^2/h
same,Skin Flux,[1]; [15],8 ± 3 μg/cm^2/h
same,Skin Flux,[1]; [13],5 ± 2 μg/cm^2/h
same,Skin Flux,[1]; [14],3 ± 1 μg/cm^2/h
same,steady state flux relative to currently available marketed products,[1]; [16],no more than 10 times
O=C(O)Cc1ccccc1Nc1c(Cl)cccc1Cl [diclofenac sodium],Skin Flux,[1]; [6],14 ± 4 μg/cm^2/h
same,Skin Flux,[1]; [12],1.7 ± 0.3 μg/cm^2/h
same,Skin Flux,[1]; [15],13 ± 3 μg/cm^2/h
same,Skin Flux,[1]; [13],30 ± 30 μg/cm^2/h
same,Skin Flux,[1]; [14],98 ± 20 μg/cm^2/h
same,steady state flux relative to flux value for glycerol,[1]; [16],at least 10 times
